We go through 7 compounds from patent publication EP4786487A1, “PEPTIDE” (Peptidream Inc, priority 2023, dated 2025).

SMILES strings stand for the structures. Starred links: 1 amine or outer side, 2 acyl side, 3 side chain; linkers in the order of their positions; H or OH if unused. Positions of bridges follow the written chain, without caps; N, C: chain ends. Non-standard residues stand in square brackets, D forms with d. Residues, ends and D or L forms follow the SMILES beside them. Groups on a side chain read outwards from the residue. *: point of attachment. Phe(3-OCH2COOH) = N[C@@H](Cc1cccc(OCC(=O)O)c1)C(=O)O; Phe(4-COOH) = N[C@@H](Cc1ccc(C(=O)O)cc1)C(=O)O; Piperazinyl(4-CH2COOH) = O=C(O)CN1CCN(*)CC1; Gly(decyl) = CCCCCCCCCC[C@H](N)C(=O)O; NMeF = CN[C@@H](Cc1ccccc1)C(=O)O; NMeE = CN[C@@H](CCC(=O)O)C(=O)O; Cha = N[C@@H](CC1CCCCC1)C(=O)O; NMeA = CN[C@@H](C)C(=O)O; CO = O=C([*:1])[*:2]; Sar = CNCC(=O)O

What is called inhibition is the percentage by which the read-out fell short of the control.

Experiment [1] has as its target T1, Myostatin (Homo sapiens, UniProt O14793).
T1 construct: active myostatin (also called mature myostatin) is a homodimer consisting of two C-terminal growth factor domains; purchased R&D systems 788-G8/CF
T1 sequence (O14793 267-375): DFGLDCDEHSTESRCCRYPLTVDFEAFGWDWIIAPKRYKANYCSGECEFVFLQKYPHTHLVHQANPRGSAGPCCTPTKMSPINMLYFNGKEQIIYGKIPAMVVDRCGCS
Put plainly: HepG2 reporter gene assay, Evaluation Procedure (2): 2-concentrations assay, myostatin inhibition. The class given is cell-based. Conditions: Myostatin 10 ng/mL, HepG2; for inhibition at 0.03 µM: peptide 30nM, read-out: Myostatin Inhibition 30nM; for inhibition at 0.1 µM: peptide 100nM, read-out: Myostatin Inhibition 100nM. The procedure, abridged:
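Myostatin inhibition was measured in a luciferase reporter assay using HepG2 cells transfected with a pGL3 vector containing 12 CAGA repeats upstream of luciferase. After 20 to 24 hours with 10 ng/mL myostatin, cells received One-Glo:PBS (1:1) at 100 µL/well, were shaken for 5 min, and 20 µL/well was moved to 384-well plates and read on an Envision 2104.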
On the technique in general: In a reporter assay the amount or activity of a reporter protein is the signal.

Experiment [2] concerns the target T2, GDF-11 (Homo sapiens, UniProt O95390).
T2 construct: purchased R&D systems 1958-GD-G8/CF
T2 sequence (O95390 299-407): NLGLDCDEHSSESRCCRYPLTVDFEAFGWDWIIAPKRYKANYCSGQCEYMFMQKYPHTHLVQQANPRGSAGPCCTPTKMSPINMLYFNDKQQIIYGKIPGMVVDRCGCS
Briefly: HepG2 reporter gene assay, Evaluation Procedure (2): 2-concentrations assay, GDF-11 inhibition. The class given is cell-based. To be noted: GDF-11 10 ng/mL; for inhibition at 0.03 µM: HepG2, peptide 30nM, read-out: GDF11 Inhibition 30nM; for inhibition at 0.1 µM: HepG2, peptide 100nM, read-out: GDF11 Inhibition 100nM. The procedure, abridged:
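HepG2 cells carrying the transfected pGL3(CAGA)12-luc reporter, a pGL3 vector with luciferase placed downstream of 12 CAGA repeats, were stimulated with GDF-11 at a final 10 ng/mL together with test peptide. Blank wells received no GDF-11 and no peptide. Plates were incubated 20 to 24 hours at 37°C with 5% CO2. Luminescence from One-Glo substrate was read to calculate percent inhibition.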

Take `CCCCCCCCCC[C@@H]1NC(=O)[C@H](CC2CCCCC2)NC(=O)[C@H](CCCNC(=N)N)NC(=O)[C@H](Cc2ccc(C(=O)O)cc2)NC(=O)[C@H](Cc2cccc(OCC(=O)O)c2)NC(=O)CN(C)C(=O)[C@H]([C@@H](C)CC)NC(=O)[C@H](Cc2ccccc2)N(C)C(=O)[C@H](Cc2ccc(O)cc2)NC(=O)[C@H](Cc2c[nH]c3ccccc23)NC(=O)[C@H](C)NC(=O)[C@H](CCCCNC(=O)N2CCN(CC(=O)O)CC2)NC(=O)CSC[C@H](C(=O)N2CCN(CC(=O)O)CC2)NC(=O)[C@H](Cc2ccccc2)N(C)C(=O)[C@H](C)N(C)C1=O` [Myostatin_99_v259] ({CH2CO}-K([CO-Piperazinyl(4-CH2COOH)])AWY[NMeF]I[Sar][Phe(3-OCH2COOH)][Phe(4-COOH)]R[Cha][Gly(decyl)][NMeA][NMeF][dC]-{Piperazinyl(4-CH2COOH)}; thioether N-15): in experiment [1], the inhibition at 0.03 µM turned out to be 100% and the inhibition at 0.1 µM was determined as 100%. In experiment [2], the inhibition at 0.03 µM worked out at 0% and the inhibition at 0.1 µM amounted to 28%.

For the compound `CCCCCCCCCC[C@@H]1NC(=O)[C@H](CC2CCCCC2)NC(=O)[C@H](CCCNC(=N)N)NC(=O)[C@H](Cc2ccc(C(=O)O)cc2)NC(=O)[C@H](Cc2cccc(OCC(=O)O)c2)NC(=O)CN(C)C(=O)[C@H]([C@@H](C)CC)NC(=O)[C@H](Cc2ccccc2)N(C)C(=O)[C@H](Cc2ccc(O)cc2)NC(=O)[C@H](Cc2c[nH]c3ccccc23)NC(=O)[C@@H](CCCCNC(=O)N2CCN(CC(=O)O)CC2)NC(=O)[C@H](C)NC(=O)CSC[C@H](C(=O)N2CCN(CC(=O)O)CC2)NC(=O)[C@H](Cc2ccccc2)N(C)C(=O)[C@H](C)N(C)C1=O` [Myostatin_99_v260] ({CH2CO}-A[dK]([CO-Piperazinyl(4-CH2COOH)])WY[NMeF]I[Sar][Phe(3-OCH2COOH)][Phe(4-COOH)]R[Cha][Gly(decyl)][NMeA][NMeF][dC]-{Piperazinyl(4-CH2COOH)}; thioether N-15), in experiment [1], the inhibition at 0.03 µM stood at 100% and the inhibition at 0.1 µM was determined as 100%. For the same compound, in experiment [2], the inhibition at 0.03 µM is 37% and the inhibition at 0.1 µM was 75%.

On to `CCCCCCCCCC[C@@H]1NC(=O)[C@H](Cc2ccccc2)N(C)C(=O)[C@H](CCCNC(=N)N)NC(=O)[C@H](Cc2ccc(C(=O)O)cc2)NC(=O)[C@H](Cc2cccc(OCC(=O)O)c2)NC(=O)CN(C)C(=O)[C@H]([C@@H](C)CC)NC(=O)[C@H](Cc2ccccc2)N(C)C(=O)[C@H](Cc2ccc(O)cc2)NC(=O)[C@H](Cc2c[nH]c3ccccc23)NC(=O)[C@H](C)NC(=O)[C@H](CCCCNC(=O)N2CCN(CC(=O)O)CC2)NC(=O)CSC[C@H](C(=O)N2CCN(CC(=O)O)CC2)NC(=O)[C@H](Cc2ccccc2)N(C)C(=O)[C@H](C)N(C)C1=O` [Myostatin_99_v263] ({CH2CO}-K([CO-Piperazinyl(4-CH2COOH)])AWY[NMeF]I[Sar][Phe(3-OCH2COOH)][Phe(4-COOH)]R[NMeF][Gly(decyl)][NMeA][NMeF][dC]-{Piperazinyl(4-CH2COOH)}; thioether N-15), for which, in experiment [1], the inhibition at 0.03 µM came out at 100% and the inhibition at 0.1 µM worked out at 100%. Moreover, in experiment [2], the inhibition at 0.03 µM is 8% and the inhibition at 0.1 µM came to 56%.

In the case of `CCCCCCCCCC[C@@H]1NC(=O)[C@H](Cc2ccccc2)N(C)C(=O)[C@H](CCCNC(=N)N)NC(=O)[C@H](Cc2ccc(C(=O)O)cc2)NC(=O)[C@H](Cc2cccc(OCC(=O)O)c2)NC(=O)CN(C)C(=O)[C@H]([C@@H](C)CC)NC(=O)[C@H](Cc2ccccc2)N(C)C(=O)[C@H](Cc2ccc(O)cc2)NC(=O)[C@H](Cc2c[nH]c3ccccc23)NC(=O)[C@@H](CCCCNC(=O)N2CCN(CC(=O)O)CC2)NC(=O)[C@H](C)NC(=O)CSC[C@H](C(=O)N2CCN(CC(=O)O)CC2)NC(=O)[C@H](Cc2ccccc2)N(C)C(=O)[C@H](C)N(C)C1=O` [Myostatin_99_v264] ({CH2CO}-A[dK]([CO-Piperazinyl(4-CH2COOH)])WY[NMeF]I[Sar][Phe(3-OCH2COOH)][Phe(4-COOH)]R[NMeF][Gly(decyl)][NMeA][NMeF][dC]-{Piperazinyl(4-CH2COOH)}; thioether N-15), in experiment [1], the inhibition at 0.03 µM worked out at 100% and the inhibition at 0.1 µM is 100%. Moreover, in experiment [2], the inhibition at 0.03 µM came to 24% and the inhibition at 0.1 µM amounted to 72%.

Take `CCCCCCCCCC[C@@H]1NC(=O)[C@H](CC2CCCCC2)NC(=O)[C@H](CCCNC(=N)N)NC(=O)[C@H](Cc2ccc(C(=O)O)cc2)NC(=O)[C@H](CCCCNC(=O)N2CCN(CC(=O)O)CC2)NC(=O)CN(C)C(=O)[C@H]([C@@H](C)CC)NC(=O)[C@H](Cc2ccccc2)N(C)C(=O)[C@H](Cc2ccc(O)cc2)NC(=O)[C@H](Cc2c[nH]c3ccccc23)NC(=O)[C@H](C)NC(=O)[C@H](CCCCNC(=O)N2CCN(CC(=O)O)CC2)NC(=O)CSC[C@H](C(=O)N2CCN(CC(=O)O)CC2)NC(=O)[C@H](Cc2ccccc2)N(C)C(=O)[C@H](C)N(C)C1=O` [Myostatin_99_v267] ({CH2CO}-K([CO-Piperazinyl(4-CH2COOH)])AWY[NMeF]I[Sar]K([CO-Piperazinyl(4-CH2COOH)])[Phe(4-COOH)]R[Cha][Gly(decyl)][NMeA][NMeF][dC]-{Piperazinyl(4-CH2COOH)}; thioether N-15): the inhibition at 0.03 µM in experiment [1] was 100%; in experiment [2], 24%. Also, the inhibition at 0.1 µM in experiment [1] is 100%; in experiment [2] it was 64%.

Regarding `CCCCCCCCCC[C@@H]1NC(=O)[C@H](CC2CCCCC2)NC(=O)[C@H](CCCNC(=N)N)NC(=O)[C@H](Cc2ccc(C(=O)O)cc2)NC(=O)[C@H](CCCCNC(=O)N2CCN(CC(=O)O)CC2)NC(=O)CN(C)C(=O)[C@H]([C@@H](C)CC)NC(=O)[C@H](Cc2ccccc2)N(C)C(=O)[C@H](Cc2ccc(O)cc2)NC(=O)[C@H](Cc2c[nH]c3ccccc23)NC(=O)[C@@H](CCCCNC(=O)N2CCN(CC(=O)O)CC2)NC(=O)[C@H](C)NC(=O)CSC[C@H](C(=O)N2CCN(CC(=O)O)CC2)NC(=O)[C@H](Cc2ccccc2)N(C)C(=O)[C@H](C)N(C)C1=O` [Myostatin_99_v268] ({CH2CO}-A[dK]([CO-Piperazinyl(4-CH2COOH)])WY[NMeF]I[Sar]K([CO-Piperazinyl(4-CH2COOH)])[Phe(4-COOH)]R[Cha][Gly(decyl)][NMeA][NMeF][dC]-{Piperazinyl(4-CH2COOH)}; thioether N-15), in experiment [1], the inhibition at 0.03 µM is 100% and the inhibition at 0.1 µM was 100%. In experiment [2], the inhibition at 0.03 µM came out at 65% and the inhibition at 0.1 µM was found to be 92%.

As to `CCCCCCCCCC[C@@H]1NC(=O)[C@H](CC2CCCCC2)NC(=O)[C@H](CCCNC(=N)N)NC(=O)[C@H](Cc2ccc(C(=O)O)cc2)NC(=O)[C@H](CCCCNC(=O)N2CCN(CC(=O)O)CC2)NC(=O)CN(C)C(=O)[C@H]([C@@H](C)CC)NC(=O)[C@H](Cc2ccccc2)N(C)C(=O)[C@H](Cc2ccc(O)cc2)NC(=O)[C@H](Cc2c[nH]c3ccccc23)NC(=O)[C@H](C)NC(=O)[C@H](C)NC(=O)CSC[C@H](C(=O)N2CCN(CC(=O)O)CC2)NC(=O)[C@H](Cc2ccccc2)N(C)C(=O)[C@H](CCC(=O)O)N(C)C1=O` [Myostatin_99_v269] ({CH2CO}-AAWY[NMeF]I[Sar]K([CO-Piperazinyl(4-CH2COOH)])[Phe(4-COOH)]R[Cha][Gly(decyl)][NMeE][NMeF][dC]-{Piperazinyl(4-CH2COOH)}; thioether N-15), the inhibition at 0.03 µM in experiment [1] came to 100%; in experiment [2], 3%. Further, the inhibition at 0.1 µM in experiment [1] stood at 100%; in experiment [2], 59%.
